# What was measured:
# [1] = biological target: T1, CXCR2 (Homo sapiens, UniProt P25025); details: in vitro and in vivo, previous studies; cited from earlier work
# T1 sequence (P25025 1-360): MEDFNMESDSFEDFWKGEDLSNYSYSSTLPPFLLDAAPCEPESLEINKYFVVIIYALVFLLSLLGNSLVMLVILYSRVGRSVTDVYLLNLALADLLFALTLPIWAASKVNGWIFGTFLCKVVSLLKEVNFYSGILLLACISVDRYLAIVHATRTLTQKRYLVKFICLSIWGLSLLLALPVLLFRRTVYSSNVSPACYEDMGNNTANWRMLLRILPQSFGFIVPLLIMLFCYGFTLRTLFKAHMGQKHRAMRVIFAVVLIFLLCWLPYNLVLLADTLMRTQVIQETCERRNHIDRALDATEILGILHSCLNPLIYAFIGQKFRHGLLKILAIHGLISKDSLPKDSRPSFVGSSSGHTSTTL
# [2] = tested on: neutrophils; test: Neutrophil recruitment into implanted U-Grafts at day 2 (flow cytometry); type: in vivo, nude mice; details: 7.5 mg/kg intraperitoneally daily
# Experimental: (§1) Photopolymerizable methacrylated gelatin (GelMA) hydrogel was synthesized as previously described (Chen, et al. Adv. Funct. Mater. 22: 2027-2039 (2012)). GelMA prepolymer solution was prepared in PBS at 80° C. (5 w/v % final) with photoinitiator Irgacure 2959 (0.5 w/v %; CIBA Chemicals), and then allowed to cool down to 37° C. in a water bath. ECFCs and MSCs (4×10^5 total; 1:1 ratio) were suspended in 200 μL of GelMA solution and the mixture was polymerized by exposure to 7.5 mW/cm^2 UV light for 15 s at 37° C. Polymerized cell-laden constructs were referred to as unassembled grafts or U-Grafts. Alternatively, on indicated experiments, U-Grafts were constructed with ice-cold Phenol Red-free Matrigel (BD Bioscience). […]
# (§2) Grafts were removed from euthanized mice and cells were retrieved by enzymatic (1 mg/mL collagenase and 2.5 U/mL dispase) digestion for 1 h at 37° C. […] Retrieved cells were also stained for flow cytometry and analyzed using a Guava easyCyte 6HT/2L flow cytometer (Millipore Corporation, Billerica, Mass.) and FlowJo software (Tree Star Inc., Ashland, Oreg.). […] In indicated experiments, retrieved cells were sorted into mCD45+/mLy6G+(neutrophils) and mCD45+/mLy6G−cells by fluorescence-activated cell sorting (FACS) using a FACSAria II 5-LASER sorter system (BD Bioscience). Sorted cells were analyzed immediately for gene expression by qPCR. […]
# [3] = tested on: U-Grafts (human ECFCs + MSCs); test: U-Graft vascularization after subcutaneous implantation into treated nude mice; type: in vivo; design: number of perfused vessels at day 7 in U-grafts: dose or concentration left out as unconfirmed; details: for U-Graft vascularization / microvessel density compared with control: U-Grafts in treated mice, day 7
# Experimental: as §1, with “Bioscience). Assembled grafts or A-Grafts were constructed by culturing U-Grafts in vitro for 7 days using EGM2 with […]. A-Grafts contained easily observable, fully-assembled vascular networks. Both, U-Grafts and A-Grafts were subcutaneously implanted into back of 6-week-old male athymic nu/nu mice for engraftment studies. On specified experiments, DsRed-labeled ECFCs were used to visualize the formation of assembled vascular networks in A-Grafts.” for “Bioscience).”
# (§3) Microvessel density was reported as the average number of erythrocyte-filled vessels (vessels/mm^2) in H&E-stained sections from the middle of the implants as previously described (Melero-Martin, et al. Circ. Res. 103:194-202 (2008)). The entire area of each section was analyzed. On specified experiments, human-specific microvessel density was quantified by evaluation of slides immunostained for human-specific CD31 (h-CD31). Perfused microvessel density was measured by injection of FITC-labeled lectins (UEA-1 or Iso-B4) before euthanizing graft-bearing mice, followed by staining of lectin-labeled vessels with anti-UEA-1 or anti-FITC antibodies. […]
# […] Neutrophil recruitment at day 2 and graft vascularization at day 7 were measured as described before. […]
# [4] = tested on: neutrophils; test: Neutrophil recruitment into implanted A-Grafts at day 2 (flow cytometry); type: in vivo, nude mice
# Experimental: as §1, §2
# [5] = tested on: A-Grafts (assembled human vascular networks); test: A-Graft revascularization after implantation into nude mice; type: in vivo
# Experimental: as §1, §3
# [6] = tested on: neutrophils; test: Neutrophil recruitment plug assay; type: in vivo, nu/nu mice; details: Matrigel plugs containing CM, day 2
# Experimental: Concentrated CM (50 μL) was mixed with 200-μL of Matrigel and injected subcutaneously into nu/nu mice. After 2 days, plugs were explanted and infiltrated cells were retrieved by enzymatic digestion and subjected to flow cytometric analysis. Concentrated basal media (basal-M: EBM-2, 5% FBS) served as control. In indicated experiments, neutralizing antibodies against IL6, CXCL1 or CXCL8 (5 μg/antibody/plug) were added to concentrated CM 30 min prior to implantation. Individual neutralizing antibodies and the combination of three were compared.
# [7] = tested on: m-Islets endogenous gfp+ microvessels; test: Vascular sprouting of m-Islets embedded in hydrogel in vitro; type: cell-based, mouse; details: 7 days in vitro
# From the text: In order to develop an interface for the engraftment of islets, we embedded isolated m-Islets in our hydrogel in the presence or absence of DAPT (a γ-secretase inhibitor) and examined the effect on the vasculature of islets for 7 days. […] This is consistent with previous data in which transiently blocking Notch enhanced the revascularization potential of A-grafts (FIG. 14) (52). We also examined the effect of unassembled DsRed-ECFCs (FIG. 19B). […] Moreover, the newly formed ECFC-lined vessels (DsRed+) interacted with the gfp+ vasculature of the m-Islets, and this interconnectivity was enhanced in the presence of DAPT (FIG. 19B).
# [8] = tested on: CXCL1, CXCL8, and IL6; test: Human cytokine protein array of conditioned media from A-Grafts; type: cell-based; details: A-Grafts exposed for 24 h
# Experimental: as §1, with “Bioscience). Assembled grafts or A-Grafts were constructed by culturing U-Grafts in vitro for 7 days using EGM2 with […]. A-Grafts contained easily observable, fully-assembled vascular networks. Both, U-Grafts and A-Grafts were subcutaneously implanted into back of 6-week-old male athymic nu/nu mice for engraftment studies. On specified experiments, DsRed-labeled ECFCs were used to visualize the formation of assembled vascular networks in A-Grafts.” for “Bioscience).”
# The presence of selected cytokines was evaluated in samples of CM with human cytokine protein arrays (R&D Systems Inc.) according to the manufacturer's instructions. […]
SMILES,neutrophil chemotaxis in response to CXCL8 [1],neutrophil presence in implanted U-Grafts [2],U-Graft vascularization / microvessel density compared with control [3],"number of perfused vessels at day 7 in U-grafts ([3]; mice treated daily, intraperitoneal)",neutrophils in A-Grafts compared with control [4],"perivascular coverage (α-SMA+ cells) of human vessels in A-Grafts ([5]; day 7, A-Grafts treated 24 h before implantation)","perfused microvessel networks in A-Grafts ([5]; day 7 in vivo, compared with untreated / basal-M A-Grafts)",neutrophil recruitment into subcutaneous plugs [6],"sprouting activity of endogenous gfp+ microvessels (number and length of sprouts) ([7]; m-Islets in hydrogel, vs untreated islets)",interconnectivity between ECFC-lined vessels (DsRed+) and m-Islets vasculature (gfp+) ([7]; m-Islets with unassembled DsRed-ECFCs in hydrogel),expression of cytokines in conditioned media of A-Grafts [8]
O=C(Nc1ccc([N+](=O)[O-])cc1O)Nc1ccccc1Br [SB225002],effectively inhibits,significantly impaired,significantly lower,,,,,,,,
NC(=O)c1ccc(-c2nc(-c3ccccn3)c(-c3ccc4c(c3)OCO4)[nH]2)cc1 [SB432542],,,completely abrogated,insignificant,,,,,,,
"C[C@H](NC(=O)Cc1cc(F)cc(F)c1)C(=O)N[C@H](C(=O)OC(C)(C)C)c1ccccc1 [DAPT, N—[N-(3,5-Difluorophenylacetyl-L-alanyl)]-S-phenylglycine t-Butyl ester]",,,,,significantly more,did not compromise proper perivascular coverage,more extensive networks of perfused microvessels,recruited significantly more neutrophils,significantly higher,enhanced,reactivated the expression of several cytokines

# Reference: patent publication US11679126B2, “Methods to enhance microvascular engraftment of bioengineered and primary tissues” (Children's Medical Center Corporation, priority 2016, dated 2023)
